From article PMC11649784, “Re-design and evaluation of diclofenac-based carborane-substituted prodrugs and their anti-cancer potential” (Scientific Reports, 2024)

Key:
HT29 cells [1] = experiment: MTT viability assay, HT29; assay type: cell-based, human; conditions: 72 h, mean±SD; read-out: IC50 [μM] (n = 3) HT29 MTT
Procedure: (§1) In a preliminary test, the stability of all compounds dissolved in the cell medium (c = 100 μM, T = [drawing 47] ) for 72 h was validated by HPLC (see Supporting Information). Cell lines were incubated with the respective compounds in a concentration range of 1.56–100 μM for 72 h, and cell viability was measured using 3-(4,5-dimethylthiazol-2-yl)-2,5-diphenyltetrazolium bromide (MTT) and crystal violet (CV) assays. […] As MTT tests gave inconsistent results, possibly due to interference of the compound with mitochondrial respiration, for the further evaluation only the CV results are considered[97],[98].
(§2) The biological study was performed on a murine colon adenocarcinoma cell line (MC38), two human colorectal carcinoma cell lines (HCT116 and HT29), and a human fetal lung fibroblast cell line (MRC-5). All cell lines are commercially available and were obtained from the American Type Culture Collection (ATCC). The human cell lines were kept in HEPES-buffered RPMI-1640 medium supplemented with 10 [drawing 141] heat-inactivated FCS, 2 mM L-glutamine, 0.01 [drawing 142] sodium pyruvate, penicillin (100 units mL^−1), and, streptomycin ( [drawing 143] mL^-1). The MC38 cell line was maintained in DMEM medium additionally supplemented with 1 [drawing 144] non-essential amino acids. Cells were grown at [drawing 145] in a humidified atmosphere with 5 [drawing 146] [drawing 147] . Peritoneal exudate cells (PECs) were isolated from healthy C57BL/6 mice (males, n = 3, 3 months old, weight 22–25 g) by performing an ice-cold PBS peritoneal lavage. Mice were sacrificed by cervical dislocation. Cells were cultivated for 4 h when nonadherent population was removed by washing in PBS, and additionally cultivated overnight in HEPES-buffered RPMI-1640 medium supplemented with 5 [drawing 148] heat-inactivated FCS before treatment with experimental drugs. Animal handling and protocol for isolation of PECs were performed according to European Union rules, and the ARRIVE guidelines 2.0.
(§3) For the viability tests, MC38, HCT116, and HT29 cells were seeded in 96-well plates at a density of 2 [drawing 149] 103, 5 [drawing 150] 103, and 6 [drawing 151] 10^3 cells/well, respectively. To determine whether the drug affected the viability of healthy, non-malignant cells, MRC-5 and PECs were seeded in 96-well plates at a density of 8 [drawing 152] 103 and 2 [drawing 153] 10^5 cells/well, respectively. For the flow cytometric analyses, MC38 cells were seeded in 6-well plates at 5 [drawing 154] 10^4 cells/well. For morphological assessment of nuclei and the detection of autophagy, MC38 cells were seeded in 2-well chamber slides at 1.5 [drawing 155] 10^4 cells/well.
(§4) After 72 h, cell viability was determined using MTT and CV tests. First, the supernatant from the wells was discarded and the cells were incubated with an MTT solution (0.5 mg mL^−1). After half an hour, the purple formazan crystals formed were dissolved in DMSO. For CV staining of the cells, the cells were fixed with 4 [drawing 157] PFA for 10 min and then stained with a 0.02 [drawing 158] CV solution for 15 min, all at room temperature (RT). The cells were then washed with tap water, air-dried and the dye was dissolved in 33 [drawing 159] acetic acid. For both viability tests, the absorbance of the developed colors was measured using an automated microplate reader at 570 nm with a reference wavelength of 670 nm. The results were expressed as a percentage of the control values of the untreated cells, which were arbitrarily set at 100 [drawing 160] . IC50 values, defined as 50 [drawing 161] inhibitory concentration, were calculated using a four-parameter logistic function and presented as mean±SD. All biological experiments were performed in triplicates. To evaluate the nature of the detected autophagy, a combined treatment with compound 3 and the autophagy inhibitors chloroquine (Chlq) and 3-methyladenine (3-MA) was carried out. […] After 72 h, cell viability was determined by CV assay.

MC38 cells [2] = experiment: MTT viability assay, MC38; assay type: cell-based, murine; conditions: 72 h, mean±SD; read-out: IC50 [μM] (n = 3) MC38 MTT
Procedure: as §1, §2, §3, §4

MC38 cells [3] = experiment: PI staining of fixed cells, fluorescence microscopy; assay type: cell-based, murine; conditions: IC50 concentration, 72 h
Procedure: For morphological assessment of cell nuclei, MC38 cells were seeded overnight in 2-well chamber slides and then treated with the IC50 concentration of compound 3 for 72 h. At the end of the incubation period, cells were fixed with 4 [drawing 168] PFA for 15 min at RT. Staining of cells was performed with PI solution (0.1 [drawing 169] Triton X-100, 0.5 M EDTA pH 8, 50 μg mL^− 1 RNase, and 50 [drawing 170] mL^− 1 PI - final concentrations in PBS) for 1–2 min at RT. After washing in PBS, the cells were mounted in a fluorescence microscopy medium (Fluoromount- [drawing 171] , eBioscience, San Diego, CA, USA). The slides were analyzed with a ZeissAxio Observer Z1 inverted fluorescence microscope (Carl Zeiss AG, Oberkochen, Germany) at 400 [drawing 172] magnification. For the detection of autophagosomes, AO staining of cells seeded in 2-well chamber slides was applied. […] The dye was then removed, the cells were rinsed with PBS and immediately evaluated via fluorescence microscopy at 400 [drawing 175] magnification using the Leica DM4 B microscope equipped with a DFC7000 T camera (Leica Microsystems CMS GmbH, Wetzlar, Germany).

HT29 cells [4] = experiment: Crystal violet (CV) viability assay, HT29; assay type: cell-based, human; conditions: 72 h, mean±SD; read-out: IC50 [μM] (n = 3) HT29 CV
Procedure: as §1, §2, §3, §4

MC38 cells [5] = experiment: CFSE cell proliferation, flow cytometry; assay type: cell-based, murine; conditions: IC50 concentration, 72 h
Procedure: For all flow cytometric analyses, MC38 cells were seeded overnight and then treated with the IC50 concentration of compound 3 for 72 h. The cells were harvested, washed, and stained according to the manufacturer’s instructions for each method. To determine whether the compound induces apoptosis, cells were double stained with AnnV-FITC and PI (15 μg mL^–1) for 15 min at RT in the dark. To detect caspase activity, cells were stained with the FITC-conjugated caspase inhibitor ApoStat for 30 min at [drawing 162] . To detect cell proliferation, MC38 cells were stained with CFSE (1 μM) for 10 min at [drawing 163] prior to seeding and then treated as previously described. To detect intracellular production of Reactive oxygen/nitrogen Species (ROS/RNS), MC38 cells were prestained with DHR 123 (1 [drawing 164] M) for 20 min at [drawing 165] , then seeded and exposed to an IC50 concentration of compound 3. After 72 h incubation, all samples were washed, resuspended in PBS and fluorescence intensity was analyzed using a CytoFLEX [drawing 166] flow cytometer (Beckman Coulter, Pasadena, CA, USA), while the data obtained was evaluated using the [drawing 167] software program.

HCT116 cells = experiment: Crystal violet (CV) viability assay, HCT116; assay type: cell-based, human; conditions: 72 h, mean±SD; read-out: IC50 [μM] (n = 3) HCT116 CV
Procedure: as §1, §2, §3, §4

IC50 (HT29 cells [1]): 17 ± 1.6 µM
IC50 (HT29 cells [4]): 17.6 ± 0.3 µM
IC50 (HCT116 cells): 11.5 ± 1 µM
Substance: 1-[2-(7,8-dicarba-nido-undecaborate)]- [drawing 126] H-indolium-2-amine [compound 3]
IC50 (MC38 cells [2]): 7.9 ± 0.2 µM
nuclear morphology (PI staining) (MC38 cells [3]): moderate involvement of apoptotic cells
CFSE mean fluorescence intensity (undivided cell fraction) (MC38 cells [5]): significantly higher in comparison to controls
